Source: patent US10377791B2, “Therapeutically active estratrienthiazole derivatives as inhibitors of 17 B-hydroxysteroid dehydrogenase, type 1” (FORENDO PHARMA LTD, priority 2013, dated 2019)
Several values for one entry are separate records, joined by “and”; a condition that tells them apart may be missing. Equal entries are not always repeated. Structures can show the parent of a compound that is named as a salt.

How the values were obtained:
[1] = target: T1, recombinant human 17β-HSD1 (Homo sapiens, UniProt P14061); assay: Inhibition of recombinant human 17β-HSD1; assay type: biochemical; conditions: inhibitor at 1 μM, 30 nM estrone, 1 mM NADPH, 30 min at RT; for inhibition at 1 µM: read-out: 17β-HDS1 Inhibition % at 1 μM
T1 construct: made in house; host or cells: Sd9 (Sf9) insect cells, baculovirus (Bac to Bac Expression System)
T1 sequence (P14061 1-328): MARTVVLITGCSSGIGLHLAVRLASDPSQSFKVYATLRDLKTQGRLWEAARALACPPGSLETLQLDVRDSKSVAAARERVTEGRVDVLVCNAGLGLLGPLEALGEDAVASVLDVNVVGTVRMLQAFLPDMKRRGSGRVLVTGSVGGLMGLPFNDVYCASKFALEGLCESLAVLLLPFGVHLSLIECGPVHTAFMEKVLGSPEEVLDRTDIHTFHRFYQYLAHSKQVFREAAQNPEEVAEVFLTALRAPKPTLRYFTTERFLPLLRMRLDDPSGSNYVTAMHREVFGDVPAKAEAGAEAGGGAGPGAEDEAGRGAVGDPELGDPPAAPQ
Experimental: Recombinant baculovirus was generated by the “Bac to Bac Expression System” (Invitrogen). Recombinant bacmid was transfected to Sd9 insect cells using “Cellfectin Reagent” (Invitrogen). 60 h later cells were harvested; the microsomal fraction was isolated as described by Puranen, T. J., Poutanen, M. H., Peltoketo, H. E., Vihko, P. T. and Vihko, R. K. (1994) Site-directed mutagenesis of the putative active site of human 17 β-hydroxysteroid dehydrogenase type 1. Biochem. J. 304: 289-293. Aliquots were stored frozen until determination of enzymatic activity.
Recombinant protein (1 μg/ml) was incubated in 20 mM KH2PO4 pH 7.4 with 30 nM estrone (including 800 000 cpm/ml of ^3H-estrone) and 1 mM NADPH for 30 min at RT, in the presence of the potential inhibitor at concentrations 1 μM or 0.1 μM. Inhibitor stock solutions were prepared in DMSO. Final concentration of DMSO was adjusted to 1% in all samples. The enzyme reaction was stopped by addition of 10% trichloroacetic acid (final concentration). Samples were centrifuged in a microtiter plate at 4000 rpm for 10 min. Supernatants were applied to reverse phase HPLC on a Waters Symmetry C18 column, equipped with a Waters Sentry Guard column. Isocratic HPLC runs were performed at RT at a flow rate of 1 ml/min in acetonitrile:water 48:52 as running solvent. Radioactivity was monitored in the eluate by a Packard Flow Scintillation Analyzer. Total radioactivity for estrone and estradiol were determined in each sample and percent conversion of estrone to estradiol was calculated according to the following formula:
(§1) [formula] Percent inhibition was calculated flowingly: % inhibition=100−% conversion

[2] = target: T2, recombinant human 17β-HSD2 (Homo sapiens, UniProt P37059); assay: Inhibition of recombinant human 17β-HSD2; assay type: biochemical; conditions: inhibitor at 1 μM, 50 nM estradiol, 1 mM NADH, 30 min at RT; for inhibition at 1 µM: read-out: 17β-HSD2 Inhibition % at 1 μM
T2 construct: made in house; host or cells: Sd9 (Sf9) insect cells, baculovirus (Bac to Bac Expression System)
T2 sequence (P37059 1-387): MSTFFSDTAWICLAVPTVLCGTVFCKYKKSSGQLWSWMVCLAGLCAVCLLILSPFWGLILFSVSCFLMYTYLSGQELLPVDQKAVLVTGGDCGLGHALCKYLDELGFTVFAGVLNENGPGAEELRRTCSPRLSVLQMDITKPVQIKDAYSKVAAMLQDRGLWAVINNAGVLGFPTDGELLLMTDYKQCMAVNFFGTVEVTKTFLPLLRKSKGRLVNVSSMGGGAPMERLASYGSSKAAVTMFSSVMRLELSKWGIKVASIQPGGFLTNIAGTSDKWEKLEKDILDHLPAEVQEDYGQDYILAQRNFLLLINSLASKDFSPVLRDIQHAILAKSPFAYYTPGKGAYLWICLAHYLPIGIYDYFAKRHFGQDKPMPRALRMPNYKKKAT
Experimental: Similarly to 17β-HSD1 the Recombinant baculovirus was generated by the “Bac to Bac Expression System” (Invitrogen). Recombinant bacmid was transfected to Sd9 insect cells using “Cellfectin Reagent” (Invitrogen). 60 h later cells were harvested and supernatant were fractionated by the following protocol: • cells were dissolved into 40 ml of A-buffer (40 mM TRIS, pH8.0, 20% glycerol, 20 μM NAD, 0.4 mM PMSF, 150 mM NaCl, 0.5% dodecyl-β-maltoside+protease inhibitor cocktail) • cells were sonicated • lysate was incubated on ice for 15 min • lysate was centrifuged 5000 rpm 15 min, +4° C. • centrifugation of the supernatant 180 000 g 30 min, +4° C. • pellet was dissolved into 8 ml of A-buffer • not resuspended material was removed by centrifugation 5000 rpm 15 min, +4° C. • the clear supernatant was divided into 100 μl aliquots and were stored frozen until determination of enzymatic activity.
The amount of 17β-HSD2 was analysed by immunoblotting and total protein concentration of each extract batch was determined.
Recombinant protein (4 μg/ml) was incubated in 20 mM KH2PO4 pH 8.5 with 50 nM estradiol (including 800 000 cpm/ml of ^3H-estradiol) and 1 mM NADH for 30 min at RT, in the presence of the potential inhibitor at concentrations 1 μM or 0.1 μM. Inhibitor stock solutions were prepared in DMSO. Final concentration of DMSO was adjusted to 1% in all samples. The enzyme reaction was stopped by addition of 10% trichloroacetic acid (final concentration). Samples were centrifuged in a microtiter plate at 4000 rpm for 10 min. Supernatants were applied to reverse phase HPLC on a Waters Symmetry C18 column, equipped with a Waters Sentry Guard column. Isocratic HPLC runs were performed at RT at a flow rate of 1 ml/min in acetonitrile:water 48:52 as running solvent. Radioactivity was monitored in the eluate by a Packard Flow Scintillation Analyzer. Total radioactivity for estrone and estradiol were determined in each sample and percent conversion of estradiol to estrone was calculated according to the following formula:
as §1

In the case of `CC(=O)Oc1ccc2c(c1)CCC1C2CC[C@]2(C)C(=O)C[C@@H](CCC(=O)Nc3ncc(C)s3)C12` (stereo partly drawn) [Compound 1, Acetic acid (13S,15R)-13-methyl-15-[2-(5-methylthiazol-2-ylcarbamoyl)-ethyl]-17-oxo-7,8,9,11,12,13,14,15,16,17-decahydro-6H-cyclopenta[a]phenanthren-3-yl ester], the inhibition at 1 µM [1] is reported as 92% and the inhibition at 1 µM [2] is reported as 13%.

`Cc1cnc(NC(=O)CC[C@@H]2CC(=O)[C@@]3(C)CCC4c5ccc(OS(N)(=O)=O)cc5CCC4C23)s1` (stereo partly drawn) [Compound 4, Sulphamic acid (13S,15R)-13-methyl-15-[2-(5-methylthiazol-2-ylcarbamoyl)-ethyl]-17-oxo-7,8,9,11,12,13,14,15,16,17-decahydro-6H-cyclopenta[a]phenanthren-3-yl ester] showed an inhibition at 1 µM [1] of 82% and an inhibition at 1 µM [2] of 3%.

In the case of `Cc1cnc(NC(=O)CC[C@@H]2CC(=O)[C@@]3(C)CCC4c5ccc(OP(=O)(O)O)cc5CCC4C23)s1` (stereo partly drawn) [Compound 7, Phosphoric acid mono-{(13S,15R)-13-methyl-15-[2-(5-methylthiazol-2-ylcarbamoyl)-ethyl]-17-oxo-7,8,9,11,12,13,14,15,16,17-decahydro-6H-cyclopenta[a]phenanthren-3-yl} ester], the inhibition at 1 µM [1] is reported as 80% and the “17β-HSD2 Inhibition % at 1 μM” value [2] is reported as 3%.

With `Cc1cnc(NC(=O)CC[C@@H]2CC(=O)[C@@]3(C)CCC4c5ccc(OP(=O)([O-])[O-])cc5CCC4C23)s1.[Na+].[Na+]` (stereo partly drawn) [Compound 8, Phosphoric acid mono-{(13S,15R)-13-methyl-15-[2-(5-methylthiazol-2-ylcarbamoyl)-ethyl]-17-oxo-7,8,9,11,12,13,14,15,16,17-decahydro-6H-cyclopenta[a]phenanthren-3-yl} ester disodium salt] the “17β-HDS1 Inhibition % at 1 μM” value [1] was 81% and the “17β-HSD2 Inhibition % at 1 μM” value [2] was 0%.

`Cc1cnc(NC(=O)CC[C@@H]2CC(=O)[C@@]3(C)CCC4c5ccc(OC(=O)CCC(=O)O)cc5CCC4C23)s1` (stereo partly drawn) [Compound 10, Succinic acid mono-{(13S,15R)-13-methyl-15-[2-(5-methylthiazol-2-ylcarbamoyl)-ethyl]-17-oxo-7,8,9,11,12,13,14,15,16,17-decahydro-6H-cyclopenta[a]phenanthren-3-yl} ester sodium salt] was tested, and the inhibition at 1 µM [1] was 98% and the inhibition at 1 µM [2] was 1%.

In the case of `CC(=O)NCC(=O)Oc1ccc2c(c1)CCC1C2CC[C@]2(C)C(=O)C[C@@H](CCC(=O)Nc3ncc(C)s3)C12` (stereo partly drawn) [Compound 11, Acetylamino-acetic acid (13S,15R)-13-methyl-15-[2-(5-methylthiazol-2-ylcarbamoyl)-ethyl]-17-oxo-7,8,9,11,12,13,14,15,16,17-decahydro-6H-cyclopenta[a]phenanthren-3-yl ester], the “17β-HDS1 Inhibition % at 1 μM” value [1] is reported as 88%, the inhibition at 1 µM [1] is reported as 87% and the “17β-HSD2 Inhibition % at 1 μM” value [2] is reported as 0% and 2%.

For `Cc1cnc(NC(=O)CC[C@@H]2CC(=O)[C@@]3(C)CCC4c5ccc(OC(=O)CNC(=O)OC(C)(C)C)cc5CCC4C23)s1` (stereo partly drawn) [Compound 15, tert-Butoxycarbonylamino-acetic acid (13S,15R)-13-methyl-15-[2-(5-methylthiazol-2-ylcarbamoyl)-ethyl]-17-oxo-7,8,9,11,12,13,14,15,16,17-decahydro-6H-cyclopenta[a]phenanthren-3-yl ester], the inhibition at 1 µM [1] was 66% and the inhibition at 1 µM [2] was 0%.

For `Cc1cnc(NC(=O)CC[C@@H]2CC(=O)[C@@]3(C)CCC4c5ccc(OC(=O)CN)cc5CCC4C23)s1` (stereo partly drawn) [Compound 16, Amino-acetic acid (13S,15R)-13-methyl-15-[2-(5-methylthiazol-2-ylcarbamoyl)-ethyl]-17-oxo-7,8,9,11,12,13,14,15,16,17-decahydro-6H-cyclopenta[a]phenanthren-3-yl ester], the inhibition at 1 µM [1] was 93% and the inhibition at 1 µM [2] was 0%.
